Data on 1 compound can be found in patent US5302604A, “Cholesterol lowering compounds produced by directed biosynthesis” (Merck & Co., Inc., priority 1992, dated 1994).

The target of this experiment is T1, Squalene Synthetase (Rattus norvegicus, UniProt Q02769).
T1 construct: from tissue; host or cells: liver microsomes (100,000×g pellet) of male Charles River CD rats fed 0.1% lovastatin for 4 days
T1 sequence (Q02769 1-416): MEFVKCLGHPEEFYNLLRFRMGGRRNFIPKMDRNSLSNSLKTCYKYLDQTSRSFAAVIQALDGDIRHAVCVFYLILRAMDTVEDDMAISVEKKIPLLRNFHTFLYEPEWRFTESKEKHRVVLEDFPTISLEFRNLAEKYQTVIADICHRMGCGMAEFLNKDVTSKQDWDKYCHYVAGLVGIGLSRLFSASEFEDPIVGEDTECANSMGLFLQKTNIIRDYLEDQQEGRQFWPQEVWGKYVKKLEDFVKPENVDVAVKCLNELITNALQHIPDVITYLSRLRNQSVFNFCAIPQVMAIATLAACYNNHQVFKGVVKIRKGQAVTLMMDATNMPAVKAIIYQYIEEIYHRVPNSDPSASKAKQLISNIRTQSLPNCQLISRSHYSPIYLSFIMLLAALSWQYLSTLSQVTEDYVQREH
Nature of the experiment: Squalene synthetase assay (in vitro inhibition, conversion of [4-^14 C]farnesyl-pyrophosphate). The experiment is classed as biochemical. Conditions: rat liver microsomes, 30° C., 20 minutes. The procedure: The intrinsic squalene synthetase inhibitory activity of representative compounds of this invention was measured by the standard in vitro protocol described below:
PREPARATION OF RAT LIVER MICROSOMES
Male, Charles River CD rats (120 to 150 g) were fed a diet containing 0.1% lovastatin for 4 days. The livers from these rats were homogenized in 5 volumes (mL/g) of ice cold 50 mM HEPES (4-(2-hydroxyethyl)-1-piperazine-ethanesulfonic acid), 5 mM EDTA (ethylenediaminetetraacetic acid) pH 7.5 with a Potter-Elvehjem type tissue grinder. The homogenate was centrifuged twice at 20,000×g for 15 min. at 4° C., discarding the pellet each time. The supernatant was then centrifuged at 100,000×g for 1 hr at 4° C. The resulting microsomal pellet was resuspended in a volume of the above homogenizing buffer equal to one-fifth the volume of the original homogenate. This microsomal preparation has a protein concentration of about 7 mg/mL. The microsomal suspensions were stored in aliquots at -70° C. Squalene synthetase activity in these aliquots is stable for a least several months.
Partial Purification of Prenyl Transferase
Prenyl transferase was purified to use in the enzymatic synthesis of radiolabelled farnesyl pyrophosphate. […]
In general terms: Liver microsomes are vesicles of endoplasmic reticulum, rich in cytochrome P450 enzymes.

`C=C(CCC12OC(C(=O)O)C(O)(C(=O)O)C(C(=O)O)(O1)C(OC(=O)/C=C/C(C)CC(C)CC)C2O)C(OC(C)=O)C(C)Cc1ccsc1` (stereo not shown): 201 pM corresponded to half-maximal inhibition (IC50).
